Kd data for 21 compounds are collected here from patent publication US10647713B2 (Nimbus Lakshmi, Inc., priority 2016, dated 2020).

Structures are written as SMILES.

Sequence of human TYK2 (JH2domain-pseudokinase) (P29597 556-888): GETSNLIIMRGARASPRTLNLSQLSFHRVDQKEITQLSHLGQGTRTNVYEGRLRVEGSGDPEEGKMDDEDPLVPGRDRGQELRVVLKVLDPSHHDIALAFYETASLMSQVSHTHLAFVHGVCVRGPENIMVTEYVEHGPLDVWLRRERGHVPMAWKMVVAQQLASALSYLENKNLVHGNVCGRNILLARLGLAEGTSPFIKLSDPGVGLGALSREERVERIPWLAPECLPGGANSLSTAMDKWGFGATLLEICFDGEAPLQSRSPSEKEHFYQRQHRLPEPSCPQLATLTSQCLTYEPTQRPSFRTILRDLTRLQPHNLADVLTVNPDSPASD

The experiment addresses human TYK2 (JH2domain-pseudokinase) (Homo sapiens (Human), UniProt P29597). Nature of the experiment: TYK2 JH2 Domain Binding Assay (KINOMEscan, DiscoveRx). The settings on record: 11-point dilution, duplicate. The method in brief:
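TYK2 JH2 (G556–D888)–NFkB DBD fusion, DNA-tagged, from HEK293 extracts (<0.1 nM) competed against immobilised biotinylated ligand for 1 h at room temperature, 0.9% DMSO. Bead-retained kinase quantified by qPCR; Kd from 11-point 3-fold series (top 30,000 nM, duplicate), Hill fit with slope −1.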
Take `Cc1cnn(-c2ccc(Nc3cc(NC(=O)C4CC4)nc4[nH]c(C)nc34)c(N(C)S(C)(=O)=O)c2)c1` [I-145, N-(2-methyl-7-((4-(4-methyl-1H-pyrazol-1-yl)-2-(N-methylmethylsulfonamido)phenyl)amino)-3H-imidazo[4,5-b]pyridin-5-yl)cyclopropanecarboxamide]: the Kd – broadly, the free concentration of one partner at which half of the binding sites on the other are occupied at equilibrium, for simple one-to-one binding – lay within 0.5 to 1 nM.

The compound `COc1c(Nc2cc(NC(=O)C3CC3)nc3[nH]c(C(F)F)nc23)cccc1-c1c(C)nnn1C` [I-146, N-(2-(difluoromethyl)-7-((3-(1,4-dimethyl-1H-1,2,3-triazol-5-yl)-2-methoxyphenyl)amino)-3H-imidazo[4,5-b]pyridin-5-yl)cyclopropanecarboxamide] showed a Kd of 1 to 10 nM.

For `CN(c1cc(-c2cncn2C)ccc1Nc1cc(NC(=O)C2CC2)nc2[nH]c(C(F)F)nc12)S(C)(=O)=O` [I-147, N-(2-(difluoromethyl)-7-((4-(1-methyl-1H-imidazol-5-yl)-2-(N-methylmethylsulfonamido)phenyl)amino)-3H-imidazo[4,5-b]pyridin-5-yl)cyclopropanecarboxamide], the Kd is below 0.1 nM.

Turning to `Cn1ccc(-c2ccc(Nc3cc(NC(=O)C4CC4)nc4[nH]c(C(F)F)nc34)c(S(C)(=O)=O)c2)n1` [I-148, N-(2-(difluoromethyl)-7-((4-(1-methyl-1H-pyrazol-3-yl)-2-(methylsulfonyl)phenyl)amino)-3H-imidazo[4,5-b]pyridin-5-yl)cyclopropanecarboxamide], the Kd was 0.1 to 0.5 nM.

For the compound `COc1c(Nc2cc(NC(=O)C3CC3)nc3[nH]c(C)nc23)cccc1-n1nc(C)nc1C` [I-149, N-(7-((3-(3,5-dimethyl-1H-1,2,4-triazol-1-yl)-2-methoxyphenyl)amino)-2-methyl-3H-imidazo[4,5-b]pyridin-5-yl)cyclopropanecarboxamide], the Kd was above 10 nM.

`COCc1ccc(Nc2cc(NC(=O)C3CC3)nc3[nH]c(C)nc23)c(N(C)S(C)(=O)=O)c1` [I-150, N-(7-((4-(methoxymethyl)-2-(N-methylmethylsulfonamido)phenyl)amino)-2-methyl-3H-imidazo[4,5-b]pyridin-5-yl)cyclopropanecarboxamide] came in with a Kd of 0.1 to 0.5 nM.

`COc1cc(-c2cncn2C)ccc1Nc1cc(NC(=O)C2CC2)nc2[nH]c(C)nc12` [I-151, N-(7-((2-methoxy-4-(1-methyl-1H-imidazol-5-yl)phenyl)amino)-2-methyl-3H-imidazo[4,5-b]pyridin-5-yl)cyclopropanecarboxamide] displayed an equilibrium dissociation constant (Kd) of 1 to 10 nM.

With `COc1cc(-c2cncn2C)ccc1Nc1cc(Nc2cnc(C)c(C)n2)nc2[nH]c(C)nc12` [I-152, N5-(5,6-dimethylpyrazin-2-yl)-N7-(2-methoxy-4-(1-methyl-1H-imidazol-5-yl)phenyl)-2-methyl-3H-imidazo[4,5-b]pyridine-5,7-diamine], the Kd lay in the range of 1 to 10 nM.

For `Cc1nc2c(Nc3ccc(-c4cncn4C)cc3N(C)S(C)(=O)=O)cc(NC(=O)C3CC3)nc2[nH]1` [I-153, N-(2-methyl-7-((4-(1-methyl-1H-imidazol-5-yl)-2-(N-methylmethylsulfonamido)phenyl)amino)-3H-imidazo[4,5-b]pyridin-5-yl)cyclopropanecarboxamide], the Kd fell in the range of 0.1 to 0.5 nM.

`Cc1ncc(Nc2cc(Nc3ccc(-c4cncn4C)cc3N(C)S(C)(=O)=O)c3nc(C(F)F)[nH]c3n2)nc1C` [I-154, N-(2-((2-(difluoromethyl)-5-((5,6-dimethylpyrazin-2-yl)amino)-3H-imidazo[4,5-b]pyridin-7-yl)amino)-5-(1-methyl-1H-imidazol-5-yl)phenyl)-N-methylmethanesulfonamide] had a Kd of 0.1 to 0.5 nM.

In turn, `COc1c(Nc2cc(NC(=O)C3CC3)nc3[nH]c(C(F)F)nc23)cccc1-c1nnn(C)c1C` [I-155, N-(2-(difluoromethyl)-7-((3-(1,5-dimethyl-1H-1,2,3-triazol-4-yl)-2-methoxyphenyl)amino)-3H-imidazo[4,5-b]pyridin-5-yl)cyclopropanecarboxamide] gave a Kd of 1 to 10 nM.

In the case of `Cc1nc2c(Nc3ccc(-c4cn(C)cn4)cc3N(C)S(C)(=O)=O)cc(NC(=O)C3CC3)nc2[nH]1` [I-156, N-(2-methyl-7-((4-(1-methyl-1H-imidazol-4-yl)-2-(N-methylmethylsulfonamido)phenyl)amino)-3H-imidazo[4,5-b]pyridin-5-yl)cyclopropanecarboxamide], the Kd fell in the range of 0.1 to 0.5 nM.

As to `COc1c(Nc2cc(NC(=O)C3CC3)nc3[nH]c(C)nc23)cccc1-c1c(C)nnn1C` [I-157, N-(7-((3-(1,4-dimethyl-1H-1,2,3-triazol-5-yl)-2-methoxyphenyl)amino)-2-methyl-3H-imidazo[4,5-b]pyridin-5-yl)cyclopropanecarboxamide], the Kd was 1 to 10 nM.

In the case of `COc1c(Nc2cc(NC(=O)C3CC3)nc3[nH]c(C)nc23)cccc1-c1nnn(C)c1C` [I-158, N-(7-((3-(1,5-dimethyl-1H-1,2,3-triazol-4-yl)-2-methoxyphenyl)amino)-2-methyl-3H-imidazo[4,5-b]pyridin-5-yl)cyclopropanecarboxamide], the equilibrium dissociation constant (Kd) is above 10 nM.

`CS(=O)(=O)c1ccccc1Nc1cc(NC(=O)C2CC2)nc2[nH]c(C(F)F)nc12` [I-159] had a Kd of 0.1 to 0.5 nM.

Turning to `COc1cc(-c2cncn2C)ccc1Nc1cc(Nc2cccc(C#N)n2)nc2[nH]c(C)nc12` [I-160, 6-((7-((2-methoxy-4-(1-methyl-1H-imidazol-5-yl)phenyl)amino)-2-methyl-3H-imidazo[4,5-b]pyridin-5-yl)amino)picolinonitrile], the Kd lay in the range of 1 to 10 nM.

In turn, `COc1cc(-c2nc(C)nn2C)ccc1Nc1cc(NC(=O)C2CC2)nc2[nH]c(C(F)F)nc12` [I-161, N-(2-(difluoromethyl)-7-((4-(1,3-dimethyl-1H-1,2,4-triazol-5-yl)-2-methoxyphenyl)amino)-3H-imidazo[4,5-b]pyridin-5-yl)cyclopropanecarboxamide] displayed a Kd of 1 to 10 nM.

The compound `COc1c(Nc2cc(NC(=O)C3CC3)nc3[nH]c(C)nc23)cccc1-n1ncnc1C` [I-162, N-(7-((2-methoxy-3-(5-methyl-1H-1,2,4-triazol-1-yl)phenyl)amino)-2-methyl-3H-imidazo[4,5-b]pyridin-5-yl)cyclopropanecarboxamide] displayed a Kd above 10 nM.

In turn, `COc1cc(-c2nc(C)nn2C)ccc1Nc1cc(NC(=O)C2CC2)nc2[nH]c(C)nc12` [I-163, N-(7-((4-(1,3-dimethyl-1H-1,2,4-triazol-5-yl)-2-methoxyphenyl)amino)-2-methyl-3H-imidazo[4,5-b]pyridin-5-yl)cyclopropanecarboxamide] yielded a dissociation constant Kd of 0.5 to 1 nM.

For `Cc1nc(-c2ccc(Nc3cc(NC(=O)C4CC4)nc4[nH]c(C(F)F)nc34)c(N(C)S(C)(=O)=O)c2)n(C)n1` [I-164, N-(2-(difluoromethyl)-7-((4-(1,3-dimethyl-1H-1,2,4-triazol-5-yl)-2-(N-methylmethylsulfonamido)phenyl)amino)-3H-imidazo[4,5-b]pyridin-5-yl)cyclopropanecarboxamide], the Kd was in the range of 0.1 to 0.5 nM.

In turn, `Cc1nc(-c2ccc(Nc3cc(NC(=O)C4CC4)nc4[nH]c(C)nc34)c(N(C)S(C)(=O)=O)c2)n(C)n1` [I-165, N-(7-((4-(1,3-dimethyl-1H-1,2,4-triazol-5-yl)-2-(N-methylmethylsulfonamido)phenyl)amino)-2-methyl-3H-imidazo[4,5-b]pyridin-5-yl)cyclopropanecarboxamide] had a Kd above 10 nM.
